As a reminder, the IC50 is the midpoint of a concentration-inhibition curve. Low values mean greater potency in that assay, high ones weaker potency in that assay.

Where a name gives a salt, the structure may show the parent alone. Some results are limits rather than exact numbers.

The values that follow come from patent publication US20250066389A1, “HETEROCYCLIC AMIDES AND METHODS OF USING THE SAME” (Rgenta Therapeutics, Inc., priority 2021, published 2025).

For the first experiment, the system named is PMS1. The experiment can be described thus: Mini-Gene Reporter Assay—PMS1 (firefly luciferase mini-gene reporter transiently transfected into HEK293 cells). Type of experiment: cell-based. As to conditions: Homo sapiens; at 5 uM; mini-gene firefly luciferase reporter in HEK293 cells; read-out: PMS1 % Effect at 5 uM. The essentials: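 Luminescence (RLU) read-out of exon inclusion: compound dilutions, tested in duplicate, act on transiently transfected HEK293 cells carrying a firefly luciferase reporter fused downstream of the PMS1 skipped-exon region. Potency derived by Levenberg-Marquardt curve fitting, with percent effect at 5 μM.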
In the case of `CCOc1cn2nc(C)cc2cc1C(=O)Nc1cnc(N2CCOC3(CCNCC3)C2)cn1` [Compound 545], the activation at 5 µM is less than 50%.

Take `COc1c(C(=O)Nc2ccc(N3CCNCC3)cn2)cn2cc(C)nc2c1C` [Compound 112, 7-methoxy-2,8-dimethyl-N-(5-(piperazin-1-yl)pyridin-2-yl)imidazo[1,2-a]pyridine-6-carboxamide]: the activation at 5 µM is less than 50%.

As to `CCOc1cn2nc(C)cc2cc1C(=O)Nc1cnc(N[C@H]2CCCNC2)cn1` [Compound 554], the activation at 5 µM is greater than 75%.

With `CCOc1cn2nc(C)cc2cc1C(=O)Nc1cnc(NC2CCC3CC2CN3)cn1` (stereo not drawn) [Compound 497], the activation at 5 µM is greater than 75%.

As to `CCOc1cc2nc(C)cn2cc1C(=O)Nc1cnc(N2CCC(N)(CC)CC2)nc1` [Compound 639], the activation at 5 µM is greater than 75%.

As to `CCOc1cc2nn(C)cc2cc1C(=O)Nc1cnc(N2CC3(CNCCO3)C2)cn1` [Compound 337], the activation at 5 µM was less than 50%.

For `COc1cc2nc(C)cn2cc1C(=O)Nc1ccc(N2CCNCC3(CC3)C2)cc1F` [Compound 139, N-(2-fluoro-4-(5,8-diazaspiro[2.6]nonan-5-yl)phenyl)-7-methoxy-2-methylimidazo[1,2-a]pyridine-6-carboxamide], the activation at 5 µM is greater than 75%.

Turning to `CCOc1cn2nc(C)cc2cc1C(=O)Nc1ccc(N2C[C@@H](C)N[C@@H](C)C2)nn1` [Compound 761, N-(6-((3R,5S)-3,5-dimethylpiperazin-1-yl)pyridazin-3-yl)-6-ethoxy-2-methylpyrazolo[1,5-a]pyridine-5-carboxamide hydrochloride], the activation at 5 µM is greater than 75%.

On to `CCOc1cc2nc(C)cn2cc1C(=O)Nc1cnc(N2CC(N)C(C)(C)C2)cn1` (stereo not drawn) [Compound 667], for which the activation at 5 µM was greater than 75%.

`Cc1cn2cc(C(=O)Nc3ccc(N4CCN[C@H](C)C4)cc3F)ncc2n1` [Compound 105, (R)—N-(2-fluoro-4-(3-methylpiperazin-1-yl)phenyl)-2-methylimidazo[1,2-a]pyrazine-6-carboxamide hydrochloride]: the activation at 5 µM is less than 50%.

As to `CCOc1cc2nn(C)cc2cc1C(=O)Nc1cnc(NC2CCNCC2)cn1` [Compound 373], the activation at 5 µM was greater than 75%.

Regarding `CCOc1cc2nn(C)cc2cc1C(=O)Nc1cnc(N(C)C[C@H]2CCCN2)nc1` [Compound 438], the activation at 5 µM is less than 50%.

Regarding `COc1cc2nc(C)cn2cc1C(=O)Nc1ccc(N2CCC3CC2CN3)cc1F` (stereo not drawn) [Compound 170, N-(4-(2,6-diazabicyclo[3.2.1]octan-2-yl)-2-fluorophenyl)-7-methoxy-2-methylimidazo[1,2-a]pyridine-6-carboxamide], the activation at 5 µM is greater than 75%.

Turning to `CCOc1cc2nc(C)cn2cc1C(=O)Nc1cnc(N2CCC(N)CC2)cn1` [Compound 695], the activation at 5 µM is greater than 75%.

Regarding `CCOc1cc2nc(C)cn2cc1C(=O)Nc1cnc(N2CCNCC2C)cn1` (stereo not drawn) [Compound 697], the activation at 5 µM is greater than 75%.

`CCOc1cn2nc(C)cc2cc1C(=O)Nc1cnc(NC2COC3(CNC3)C2)cn1` (stereo not drawn) [Compound 537]: the activation at 5 µM was less than 50%.

For the molecule `CCOc1cc2nn(C)cc2cc1C(=O)Nc1cnc(NCCC2CCCCN2)cn1` (stereo not drawn) [Compound 358], the activation at 5 µM was in the range of 50 to 75%.

Consider `CCOc1cn2nc(C)cc2cc1C(=O)Nc1cnc(N2CCC3(CC2)CNCCO3)nc1` [Compound 584], for which the activation at 5 µM is less than 50%.

`CCOc1cc2nn(C)cc2cc1C(=O)Nc1cnc(NC[C@@H]2CCNC2)nc1` [Compound 465]: the activation at 5 µM is less than 50%.

As for `CCOc1cn2nc(C)cc2cc1C(=O)Nc1cnc(N(C)CC2CCNC2)cn1` (stereo not drawn) [Compound 538], the activation at 5 µM lay within 50 to 75%.

For `CCOc1cc2nn(C)cc2cc1C(=O)Nc1ccc(N2C[C@@H](C)N[C@@H](C)C2)nn1` [Compound 751, N-(6-((3S,5R)-3,5-dimethylpiperazin-1-yl)pyridazin-3-yl)-6-ethoxy-2-methyl-2H-indazole-5-carboxamide hydrochloride], the activation at 5 µM was greater than 75%.

Regarding `CCOc1cn2nc(C)cc2cc1C(=O)Nc1cnc(NC2CCN(C(=O)CCCNC)CC2)cn1` [Compound 513], the activation at 5 µM was less than 50%.

In the case of `CCOc1cn2nc(C)cc2cc1C(=O)Nc1cnc(NC2CNCC23CCC3)cn1` (stereo not drawn) [Compound 509], the activation at 5 µM is less than 50%.

Consider `CCNC1CCN(c2ccc(NC(=O)c3cn4cc(C)nc4cc3OC)c(F)c2)C1` (stereo not drawn) [Compound 168, N-(4-(3-(ethylamino)pyrrolidin-1-yl)-2-fluorophenyl)-7-methoxy-2-methylimidazo[1,2-a]pyridine-6-carboxamide], for which the activation at 5 µM was greater than 75%.

Turning to `CCOc1cc2nn(C)cc2cc1C(=O)Nc1cnc(NC[C@@H]2CC(F)(F)CN2)nc1` [Compound 443], the activation at 5 µM was less than 50%.

As to `CCOc1cc2nn(C)cc2cc1C(=O)Nc1cnc(NC[C@@H]2C[C@H]3CC[C@@H](C2)N3)cn1` [Compound 359], the activation at 5 µM is less than 50%.

Turning to `CCOc1cc2nn(C)cc2cc1C(=O)Nc1cnc(NCC2CNCCOC2)cn1` (stereo not drawn) [Compound 347], the activation at 5 µM was less than 50%.

`CCOc1cn2nc(C)cc2cc1C(=O)Nc1cnc(N2CC[C@@H]3CNC[C@@H]3CC2)nc1` [Compound 619]: the activation at 5 µM is less than 50%.

On to `CCOc1cn2nc(C)cc2cc1C(=O)Nc1cnc(N2CC3C4CCC(NC4)C3C2)nc1` (stereo not drawn) [Compound 605], for which the activation at 5 µM was less than 50%.

In the case of `CCOc1cc2nc(C)cn2cc1C(=O)Nc1cnc(N2CCNCC2)cn1` [Compound 693], the activation at 5 µM was greater than 75%.

Consider `CCOc1cc2nn(C)cc2cc1C(=O)Nc1cnc(NC[C@H](C)NC)nc1` [Compound 390], for which the activation at 5 µM was less than 50%.

In the case of `CCOc1cc2nn(C)cc2cc1C(=O)Nc1cnc(N2CCCC2CNC)nc1` (stereo not drawn) [Compound 437], the activation at 5 µM was less than 50%.

Consider `COc1cc2nc(C)cn2cc1C(=O)Nc1ccc(N2C3CCNCC2CC3)cc1F` (stereo not drawn) [Compound 148, N-(4-(3,9-diazabicyclo[4.2.1]nonan-9-yl)-2-fluorophenyl)-7-methoxy-2-methylimidazo[1,2-a]pyridine-6-carboxamide], for which the activation at 5 µM was less than 50%.

On to `CCOc1cn2nc(C)cc2cc1C(=O)Nc1cnc(NC[C@@H]2C[C@H](F)CN2)cn1` [Compound 539], for which the activation at 5 µM was less than 50%.

On to `CCOc1cn2nc(C)cc2cc1C(=O)Nc1cnc(N2CCC(N)(c3cccc(F)c3)C2)nc1` (stereo not drawn) [Compound 568], for which the activation at 5 µM is less than 50%.

Consider `CCOc1cn2nc(C)cc2cc1C(=O)Nc1cnc(N2CCC(NC)CC2)cn1` [Compound 553], for which the activation at 5 µM was greater than 75%.

Take `CCOc1cc2nn(C)cc2cc1C(=O)Nc1cnc(N2CC34CCCCC3(CNC4)C2)cn1` (stereo not drawn) [Compound 331]: the activation at 5 µM was less than 50%.

With `CCOc1cc2nn(C)cc2cc1C(=O)Nc1cnc(N2CCCNC(C)C2)cn1` (stereo not drawn) [Compound 332], the activation at 5 µM was greater than 75%.

Still in this experiment, the particulars now being: Homo sapiens; mini-gene firefly luciferase reporter in HEK293 cells.
For the molecule `CCOc1cc2nc(C)cn2cc1C(=O)Nc1ccc(C2=CCNCC2)nn1` [Compound 709, 7-ethoxy-2-methyl-N-(6-(1,2,3,6-tetrahydropyridin-4-yl)pyridazin-3-yl)imidazo[1,2-a]pyridine-6-carboxamide hydrochloride], the IC50 was less than 1000 nM.

On to `CCOc1cc2nc(C)cn2cc1C(=O)Nc1ccc(N2CC(C)NCC2C)nn1` (stereo not drawn) [Compound 281], for which the IC50 was in the range of 1000 to 10000 nM.

Molecule `Cc1cn2cc(C(=O)Nc3ccc(N4CCNCC4)cn3)c(OC3CCC3)cc2n1` [Compound 128, 7-cyclobutoxy-2-methyl-N-(5-(piperazin-1-yl)pyridin-2-yl) imidazo[1,2-a]pyridine-6-carboxamide hydrochloride] gave an IC50 of less than 1000 nM.

As to `Cc1cn2cc(C(=O)Nc3ccc(N4CCN[C@@H](C)C4)nn3)c(OC3CCOCC3)cc2n1` [Compound 211, (S)-2-methyl-N-(6-(3-methylpiperazin-1-yl)pyridazin-3-yl)-7-((tetrahydro-2H-pyran-4-yl)oxy)imidazo[1,2-a]pyridine-6-carboxamide hydrochloride], the IC50 fell in the range of 10000 to 50000 nM.

As to `COc1cc2nc(C)cn2cc1C(=O)Nc1ccc(N2C[C@@H](C)N[C@@H](C)C2)cn1` [Compound 724, N-(5-((3R,5S)-3,5-dimethylpiperazin-1-yl)pyridin-2-yl)-7-methoxy-2-methylimidazo[1,2-a]pyridine-6-carboxamide], the IC50 is 1000 to 10000 nM.

For the molecule `CCOc1nc2nc(C)cn2cc1C(=O)Nc1ccc(N2CCN[C@@H](C)C2)nn1` [Compound 224, (S)-7-ethoxy-2-methyl-N-(6-(3-methylpiperazin-1-yl)pyridazin-3-yl)imidazo[1,2-a]pyrimidine-6-carboxamide hydrochloride], the IC50 is less than 1000 nM.

Turning to `Cc1cn2cc(C(=O)Nc3ccc(N4CCN[C@@H](C)C4)nn3)c(OC3CCCOC3)cc2n1` (stereo partly drawn) [Compound 218, 2-methyl-N-(6-((S)-3-methylpiperazin-1-yl)pyridazin-3-yl)-7-((tetrahydro-2H-pyran-3-yl)oxy)imidazo[1,2-a]pyridine-6-carboxamide], the IC50 lay in the range of 1000 to 10000 nM.

In the case of `CCOc1cc2nc(C)cn2cc1C(=O)Nc1ccc(N2CCC(NC)CC2)nn1` [Compound 226], the IC50 lay in the range of 1000 to 10000 nM.

With `CCOc1cc2nn(C)cc2cc1C(=O)Nc1ccc(C2CCN[C@@H](C)C2)nn1` (stereo partly drawn) [Compound 717, 6-ethoxy-2-methyl-N-(6-((2S)-2-methylpiperidin-4-yl)pyridazin-3-yl)-2H-indazole-5-carboxamide], the half-inhibitory concentration (IC50) is less than 1000 nM.

On to `CCOc1cc2nc(C)cn2cc1C(=O)Nc1ccc(N2CCN(C3CNC3)CC2)nn1` [Compound 272], for which the 50% inhibitory concentration (IC50) fell in the range of 1000 to 10000 nM.

Regarding `COc1c(C(=O)Nc2ccc(N3CCNCC3)cc2F)cn2cc(C)nc2c1C` [Compound 127, N-(2-fluoro-4-(piperazin-1-yl)phenyl)-7-methoxy-2,8-dimethylimidazo[1,2-a]pyridine-6-carboxamide], the IC50 is 1000 to 10000 nM.

With `CCNC1CCCN(c2ccc(NC(=O)c3cn4cc(C)nc4cc3OCC)nn2)C1` (stereo not drawn) [Compound 251], the IC50 was 1000 to 10000 nM.

In turn, `Cn1cc2cc(C(=O)Nc3ccc(N4CCNCC4)nn3)c(OC3CCC3)cc2n1` [Compound 207, 6-cyclobutoxy-2-methyl-N-(6-(piperazin-1-yl)pyridazin-3-yl)-2H-indazole-5-carboxamide HCl Salt] came in with an IC50 of less than 1000 nM.
